From PubChem BioAssay AID2060511 (Molecular Pharmacology Branch, DTP, NCI, 2025)
pIC50: −log10 of the molar value.

System: 422866-222-R5-J1-PDC spheroids with HUVEC/MSC, viability
Test: Anticancer human tumor 422866-222-R5-J1-PDC patient-derived pancreatic adenocarcinoma cell line growth inhibition [GQUAD]
Conditions: for pIC50: curve of first compound; for viability, T/C: stronger effect = lower value
Excerpt: DNA G-quadruplex Stabilizer Agents in Combinations in Complex Spheroids
A high-throughput screen of multi-cell type tumor spheroids was designed to identify active combinations of DNA G-quadruplex stabilizer agents and targeted small molecules. Complex spheroids include a stromal component modeled by human endothelial cells (HUVEC) and fibroblasts modeled by human mesenchymal stem cells (MSCs). The concentration ranges selected for each drug and investigational agent were based upon clinically achievable concentrations if the clinical Cmax of the agent was known.
Compounds. The drugs and investigational agents: pidnarulex (CX-5461; NSC782164), APTO-253 (NSC789042), BRACO-19 (NSC847499), peposertib (NSC802822), ceralasertib (NSC780249), elimusertib (NSC800525), camonsertib (NSC841442), AZD-1390 (NSC803789), olaparib (NSC753686), talazoparib (NSC767125), ART-558 (NSC835418), sotorasib (NSC818433), MRTX-1133 (NSC836407), SN-38 (NSC673596), topotecan (NSC609699), etoposide (NSC141540), doxorubicin (NSC123127), gemcitabine (NSC613327), 5-fluorouracil (NSC19893), paclitaxel (NSC125973), vemurafenib (NSC761431), panobinostat (NSC761190), R-306465 (JNJ-16241199; NSC773264), adavosertib (NSC754352), TP-3654 (NSC805149), carboplatin (NSC241240), KSQ-4279 (NSC840948), and staurosporine (NSC755774) were obtained from the National Cancer Institute (NCI) Developmental Therapeutics Program Chemical Repository (34). The FDA-approved anticancer drug set is available from the NCI Developmental Therapeutics Program. […] The stock solutions were prepared in dimethyl sulfoxide (DMSO, Sigma-Aldrich, St. Louis, MO, cat. D2650) at 800-fold the tested concentration and stored at -70 degrees C prior to their use. All drugs and investigational agents were tested over a range starting from a high concentration at or near the clinical Cmax and decreasing in half-log increments. If the clinical Cmax for an agent had not been determined, the highest concentration tested was 10 microM.
2.3 Cell Culture. All cells were maintained in an incubator at 37 degrees C and 5% CO2 with 95% humidity. The PDC lines were cultured according to standard operating procedures established by the NCI PDMR. All PDCs were thawed and cultured in Matrigel-coated flasks prepared with a working solution of 1X Ham's F-12 nutrient mix, without supplementation (Invitrogen, cat. 11765054), 100 U/mL penicillin-streptomycin (Invitrogen, cat. 15140122), and 2.5% Matrigel (Corning Inc., cat. 354248) for the first three passages. The 857933-349-R-J2-PDC line was cultured in 6C/Colon 1B media, which includes advanced DMEM/F-12 (Thermo Fisher Scientific, cat. 12634028), 10 mM HEPES (Thermo Fisher Scientific, cat. 15630080), 1X GlutaMAX supplement (Thermo Fisher Scientific, cat. 35050061), 0.1 mg/mL primocin (InvivoGen, cat. ant-pm-2), 10% defined fetal bovine serum, heat inactivated (HyClone Laboratories Inc., cat. SH30070.03HI), 50% L-WRN conditioned media (ATCC, cat. CRL-3276), 1.25 mM N-Acetyl-L-cysteine (Sigma-Aldrich, cat. A9165), 10 mM nicotinamide (Sigma-Aldrich, cat. N0636), 1X B-27 supplement (Thermo Fisher Scientific, cat. 17504044), 1X N-2 supplement (Thermo Fisher Scientific, cat. 17502048), 10 microM Y-27632 dihydrochloride (Tocris Bioscience, cat. 1254), and 50 ng/mL human EGF recombinant protein (Thermo Fisher Scientific, cat. PHG0311). The 485176-168-R4-J1-PDC line was cultured in Panc media, which includes all 6C/Colon 1B media components plus 100 ng/mL human FGF-10 (Thermo Fisher Scientific, cat. 100-26), 500 nM SB-431542 (Selleckchem, cat. S1067), and gastrin (Tocris, cat. 3006).
[…]

[1] = second compound 0.0316 µM, first compound 0.0316 µM
[2] = second compound 0.0316 µM, first compound 0.316 µM
[3] = second compound 0.1 µM, first compound 0.0316 µM
[4] = second compound 0.1 µM, first compound 0.316 µM
[5] = second compound 0.316 µM, first compound 0.0316 µM
[6] = second compound 0.316 µM, first compound 0.316 µM
[7] = second compound 1 µM, first compound 0.0316 µM
[8] = second compound 1 µM, first compound 0.316 µM
[9] = second compound 3.16 µM, first compound 0.0316 µM
[10] = second compound 3.16 µM, first compound 0.316 µM
[11] = second compound 10 µM, first compound 0.0316 µM
[12] = second compound 10 µM, first compound 0.316 µM
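Further: spheroids exposed to compounds for seven days before reading.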
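Wherever viability, T/C is given: percent viability relative to DMSO vehicle control taken as 100%.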

Molecule Cn1ncnc1[C@H]1c2n[nH]c(=O)c3cc(F)cc(c23)N[C@@H]1c1ccc(F)cc1 + Cc1[nH]c2ccc(F)cc2c1-c1nc2c3cccnc3c3ncccc3c2[nH]1 has a pIC50 (second compound 0.0316 µM) of less than 6.50, a pIC50 (second compound 0.1 µM) of less than 6.50 and a pIC50 (second compound 0.316 µM) of less than 6.50. It also gave a pIC50 (second compound 1 µM) of less than 6.50, a pIC50 (second compound 3.16 µM) of less than 6.50 and a pIC50 (second compound 10 µM) of less than 6.50. For the same molecule, the viability, T/C (second compound 0.0316 µM, first compound 0.000999 µM) was 92.4%, the viability, T/C (second compound 0.0316 µM, first compound 0.00316 µM) was 92.3% and the viability, T/C (second compound 0.0316 µM, first compound 0.00999 µM) was 105%. For the same molecule, the viability, T/C [1] was 91.8%, the viability, T/C (second compound 0.0316 µM, first compound 0.0999 µM) was 86.5% and the viability, T/C [2] was 81.9%. It also gave a viability, T/C (second compound 0.1 µM, first compound 0.000999 µM) of 99.5%, a viability, T/C (second compound 0.1 µM, first compound 0.00316 µM) of 102% and a viability, T/C (second compound 0.1 µM, first compound 0.00999 µM) of 102%. For the same molecule, the viability, T/C [3] was 89.5%, the viability, T/C (second compound 0.1 µM, first compound 0.0999 µM) was 97.3% and the viability, T/C [4] was 86.8%. For the same molecule, the viability, T/C (second compound 0.316 µM, first compound 0.000999 µM) was 105%, the viability, T/C (second compound 0.316 µM, first compound 0.00316 µM) was 114% and the viability, T/C (second compound 0.316 µM, first compound 0.00999 µM) was 83.2%. It also gave a viability, T/C [5] of 91.2%, a viability, T/C (second compound 0.316 µM, first compound 0.0999 µM) of 91.4% and a viability, T/C [6] of 97.3%. The viability, T/C (second compound 1 µM, first compound 0.000999 µM) was 89.6%, the viability, T/C (second compound 1 µM, first compound 0.00316 µM) was 109% and the viability, T/C (second compound 1 µM, first compound 0.00999 µM) was 104%. The viability, T/C [7] was 108%, the viability, T/C (second compound 1 µM, first compound 0.0999 µM) was 94.3% and the viability, T/C [8] was 80.8%. For the same molecule, the viability, T/C (second compound 3.16 µM, first compound 0.000999 µM) was 93.1%, the viability, T/C (second compound 3.16 µM, first compound 0.00316 µM) was 82.8% and the viability, T/C (second compound 3.16 µM, first compound 0.00999 µM) was 80.4%. For the same molecule, the viability, T/C [9] was 78.8%, the viability, T/C (second compound 3.16 µM, first compound 0.0999 µM) was 94.3% and the viability, T/C [10] was 81.9%. For the same molecule, the viability, T/C (second compound 10 µM, first compound 0.000999 µM) was 87.5%, the viability, T/C (second compound 10 µM, first compound 0.00316 µM) was 92.7% and the viability, T/C (second compound 10 µM, first compound 0.00999 µM) was 87%. For the same molecule, the viability, T/C [11] was 97.7%, the viability, T/C (second compound 10 µM, first compound 0.0999 µM) was 81.1% and the viability, T/C [12] was 71.1%.
Work on O=C(c1cc(Cc2n[nH]c(=O)c3ccccc23)ccc1F)N1CCN(C(=O)C2CC2)CC1 + Cc1[nH]c2ccc(F)cc2c1-c1nc2c3cccnc3c3ncccc3c2[nH]1 yielded a pIC50 (second compound 0.0316 µM) of less than 5.00, a pIC50 (second compound 0.1 µM) of less than 5.00 and a pIC50 (second compound 0.316 µM) of less than 5.00. It also gave a pIC50 (second compound 1 µM) of less than 5.00, a pIC50 (second compound 3.16 µM) of less than 5.00 and a pIC50 (second compound 10 µM) of less than 5.00. The viability, T/C [1] was 99%, the viability, T/C (second compound 0.0316 µM, first compound 0.1 µM) was 87.9% and the viability, T/C [2] was 91%. The viability, T/C (second compound 0.0316 µM, first compound 1 µM) was 77%, the viability, T/C (second compound 0.0316 µM, first compound 3.16 µM) was 83.1% and the viability, T/C (second compound 0.0316 µM, first compound 10 µM) was 65.6%. It also gave a viability, T/C [3] of 102%, a viability, T/C (second compound 0.1 µM, first compound 0.1 µM) of 85.1% and a viability, T/C [4] of 86%. For the same molecule, the viability, T/C (second compound 0.1 µM, first compound 1 µM) was 89.2%, the viability, T/C (second compound 0.1 µM, first compound 3.16 µM) was 93% and the viability, T/C (second compound 0.1 µM, first compound 10 µM) was 81.4%. For the same molecule, the viability, T/C [5] was 104%, the viability, T/C (second compound 0.316 µM, first compound 0.1 µM) was 83.9% and the viability, T/C [6] was 90.6%. It also gave a viability, T/C (second compound 0.316 µM, first compound 1 µM) of 72.8%, a viability, T/C (second compound 0.316 µM, first compound 3.16 µM) of 87.4% and a viability, T/C (second compound 0.316 µM, first compound 10 µM) of 79.7%. The viability, T/C [7] was 89.9%, the viability, T/C (second compound 1 µM, first compound 0.1 µM) was 100% and the viability, T/C [8] was 89.2%. It also gave a viability, T/C (second compound 1 µM, first compound 1 µM) of 88.7%, a viability, T/C (second compound 1 µM, first compound 3.16 µM) of 94.7% and a viability, T/C (second compound 1 µM, first compound 10 µM) of 83.6%. For the same molecule, the viability, T/C [9] was 79.4%, the viability, T/C (second compound 3.16 µM, first compound 0.1 µM) was 83.5% and the viability, T/C [10] was 75.4%. The viability, T/C (second compound 3.16 µM, first compound 1 µM) was 100%, the viability, T/C (second compound 3.16 µM, first compound 3.16 µM) was 81.7% and the viability, T/C (second compound 3.16 µM, first compound 10 µM) was 79.6%. It also gave a viability, T/C [11] of 66.6%, a viability, T/C (second compound 10 µM, first compound 0.1 µM) of 70.8% and a viability, T/C [12] of 81.2%. The viability, T/C (second compound 10 µM, first compound 1 µM) was 64.2%, the viability, T/C (second compound 10 µM, first compound 3.16 µM) was 85.9% and the viability, T/C (second compound 10 µM, first compound 10 µM) was 77.7%.
